The values below come from patent US6228877A, “Substituted pyrroles” (Hoffmann-La Roche Inc., priority 1998, dated 2001).

The assay deals with epithelial breast carcinoma cell line (MDAMB-435). As to the kind of experiment: effect of compounds on growth of epithelial breast carcinoma cell line MDAMB-435 (MTT, 5 days). The assay is classed as cell-based. Conditions: Homo sapiens, MDA-MB-435, 120 h, MDAMB-435 cells, 5 days post drug addition, 0.1% DMSO. How it is done: The epithelial breast carcinoma cell line (MDAMB-435) was purchased from ATCC (American Type Cell Culture Collection) and was grown in culture in medium as recommended by ATCC. For analysis of the effect of various compounds on growth of these cells, the cells were plated at a concentration of 1500 cells/well in a 96 well tissue culture plate ("test plate). The day after the cells were plated, the compounds to be analyzed were dissolved in 100% DMSO (dimethyl sulfoxide) to yield at 10 mM stock solution. Each compound was diluted in H2 O to 1 mM and was added to triplicate wells in the first row of a 96 well master plate which contains medium to yield a final concentration of 40 μM. The compounds were then serially diluted in medium in the "master plate". The diluted compound(s) were then transferred to test plates containing cells. A row of vehicle "control cells" received DMSO. The final concentration of DMSO in each well was 0.1%. 5 days post drug addition, the plate was analyzed as follows:
MTT (3-(4-5 methyl thiazole-2-yl)-2,5-diphenyl tetrazolium bromide; thiazolyl blue) was added to each well to yield a final concentration of 1 mg/ml. The plate was then incubated at 37° C. for 21/2-3 hours. The MTT containing medium was then removed and 50 μl of 100% ethanol was added to each well to dissolve the formazan. The absorbences were then read using an automated plate reader (Bio-tek microplate reader).
IC50 's were calculated using the Reed and Munsch equation, see Am. J. Hygiene Vol. 27 pgs. 493-497, 1938.

As a reminder, the IC50 is the concentration that inhibits the measured activity by half. Low values mean higher potency, high ones lower potency. On to `Cn1cc(C2=C(c3cn(C)c4cc([N+](=O)[O-])ccc34)C(=O)NC2=O)c2ccc(C#N)cc21` [H H CN NO2, 1-methyl-3-[4-(1-methyl-6-nitro-1H-indol-3-yl)-2,5-dioxo-2,5-dihydro-1H-pyrrol-3-yl]1H-indole-6-carbonitrile], for which the IC50 came out at 0.05 µM.

For the molecule `COc1ccc2c(C3=C(c4cn(C)c5cc(C#N)ccc45)C(=O)NC3=O)cn(C)c2c1` [H H CN OCH3, 3-[4-(6-methoxy-1-methyl-1H-indol-3-yl)-2,5-dioxo-2,5-dihydro-1H-pyrrole-3-yl]-1-methyl-indol-6-carbonitrile], the IC50 turned out to be 0.005 µM.

For the molecule `COC(=O)c1ccc2c(C3=C(c4cn(C)c5cc([N+](=O)[O-])ccc45)C(=O)NC3=O)cn(C)c2c1` [H H CO2 CH3 NO2, 1-methyl-3[4-(1-methyl-6-nitro-1H-indol-3-yl)-2,5-dioxo-2,5-dihydro-1H-pyrrole-3-yl]-1H-indole-6-carboxylic acid methyl ester], the IC50 worked out at 0.007 µM.

`COc1ccc2c(C3=C(c4cn(C)c5cc(Cl)ccc45)C(=O)NC3=O)cn(C)c2c1` [H H Cl OCH3, 3-(6-chloro-1-methyl-1H-indol-3-yl)-4-(6-methoxy-1-methyl-1H-indol-3-yl)-pyrrole-2,5-dione] registered an IC50 of 0.007 µM.

The molecule `CCOCCOCCOc1ccc2c(C3=C(c4cn(C)c5cc([N+](=O)[O-])ccc45)C(=O)NC3=O)cn(C)c2c1` [H H Et(OCH2 CH2)2 O NO2, 3-{6-[2-(2-Ethoxy-ethoxy)-ethoxy]-1-methyl-1H-indol-3-yl}-4-(1-methyl-6-nitro-1H-indol-3-yl)-pyrrole-2,5-dione] showed an IC50 of 0.04 µM.

As for `COc1ccc2c(C3=C(c4cn(C)c5cc(F)ccc45)C(=O)NC3=O)cn(C)c2c1` [H H F OCH3, 3-(6-fluoro-1-methyl-1H-indol-3-yl)-4-(6-methoxy-1-methyl-1H-indol-3-yl)-pyrrole-2,5-dione], the 50% inhibitory concentration (IC50) turned out to be 0.02 µM.

`COc1ccc2c(C3=C(c4cn(C)c5cc(N=[N+]=[N-])ccc45)C(=O)NC3=O)cn(C)c2c1` [H H N3 CH3 O, 3-(6-Azido-1-methyl-1H-indol-3-yl)-4-(6-methoxy-1-methyl-1H-indol-3-yl)-pyrrole-2,5,-dione] displayed an IC50 of 0.07 µM.

The molecule `Cn1cc(C2=C(c3cn(C)c4cc(Br)ccc34)C(=O)NC2=O)c2ccc(N)cc21` [H H NH2 Br, 3-(6-Amino-1-methyl-1H-indol-3-yl)-4-(6-bromo-1-methyl-1H-indol-3-yl)-pyrrole-2,5-dione] showed an IC50 of 0.004 µM.

The molecule `COc1ccc2c(C3=C(c4cn(C)c5cc(N)ccc45)C(=O)NC3=O)cn(C)c2c1` [H H NH2 CH3 O, 3-(6-Amino-1-methyl-1H-indol-3-yl)-4-(6-methoxy-1-methyl-1H-indol-3-yl)-pyrrole-2,5-dione] came in with an IC50 of 0.015 µM.

Regarding `Cn1cc(C2=C(c3cn(C)c4cc(C#N)ccc34)C(=O)NC2=O)c2ccc(N)cc21` [H H NH2 CN, 3-[4-(6-Amino-1-methyl-1H-indol-3-yl)-2,5-dioxo-2,5-dihydro-1H-pyrrol-3-yl]-1-methyl-1H-indole-6-carbonitrile], the IC50 was less than 0.01 µM.

Consider `COC(=O)c1ccc2c(C3=C(c4cn(C)c5cc(N)ccc45)C(=O)NC3=O)cn(C)c2c1` [H H NH2 CO2 CH3, 3-[4-(6-Amino-1-methyl-1H-indol-3-yl)-2,5-dioxo-2,5-dihydro-1H-pyrrol-3-yl] -1-methyl-1H-indole-6-carboxylic acid methyl ester], for which the IC50 was found to be 0.05 µM.

For the molecule `Cn1cc(C2=C(c3cn(C)c4cc(Cl)ccc34)C(=O)NC2=O)c2ccc(N)cc21` [H H NH2 Cl, 3-(6-Amino-1-methyl-1H-indol-3-yl)-4-(6-chloro-1-methyl-1H-indol-3-yl)-pyrrole-2,5-dione], the IC50 is 0.012 µM.

Turning to `CCOc1ccc2c(C3=C(c4cn(C)c5cc(N)ccc45)C(=O)NC3=O)cn(C)c2c1` [H H NH2 EtO], the IC50 stood at 0.012 µM.

`Cn1cc(C2=C(c3cn(C)c4cc(F)ccc34)C(=O)NC2=O)c2ccc(N)cc21` [H H NH2 F, 3-(6-Amino-1-methyl-1H-indol-3-yl)-4-(6-fluoro-1-methyl-1H-indol-3-yl)-pyrrole-2,5-dione] showed an IC50 of 0.042 µM.

The molecule `Cn1cc(C2=C(c3cn(C)c4cc(N)ccc34)C(=O)NC2=O)c2ccc(N)cc21` [H H NH2 NH2, 3,4-bis-(1-methyl-6-amino-1H-indol-3-yl)-pyrrole-2,5-dione] had an IC50 of 0.7 µM.

Turning to `Cn1cc(C2=C(c3cn(C)c4cc([N+](=O)[O-])ccc34)C(=O)NC2=O)c2ccc(N)cc21` [H H NH2 NO2, 3-(6-Amino-1-methyl-1H-indol-3-yl)-4-(1-methyl-6-nitro-1H-indol-3-yl)-pyrrole-2,5-dione], the concentration for half-maximal inhibition (IC50) is less than 0.01 µM.

On to `Cn1cc(C2=C(c3cn(C)c4cc([N+](=O)[O-])ccc34)C(=O)NC2=O)c2ccc(Cl)cc21` [H H NO2 Cl, 3-(6-chloro-1-methyl-1H-indol-3-yl)-4-(1-methyl-6-nitro-1H-indol-3-yl)-pyrrole-2,5-dione], for which half-maximal inhibition (IC50) required 0.07 µM.

`Cn1cc(C2=C(c3cn(C)c4cc([N+](=O)[O-])ccc34)C(=O)NC2=O)c2ccc(F)cc21` [H H NO2 F, 3-(6-fluoro-1-methyl-1H-indol-3-yl)-4-(1-methyl-6-nitro-1H-indol-3-yl)-pyrrole-2,5-dione]: the IC50 amounted to 0.07 µM.

For `Cn1cc(C2=C(c3cn(C)c4cc([N+](=O)[O-])ccc34)C(=O)NC2=O)c2ccc([N+](=O)[O-])cc21` [H H NO2 NO2, 3,4-Bis-(1-methyl-6-nitro-1H-indol-3-yl)-pyrrole-2,5-dione], inhibition was half-maximal at 0.07 µM (IC50).

In the case of `Cn1cc(C2=C(c3cn(C)c4cc([N+](=O)[O-])ccc34)C(=O)NC2=O)c2ccc(OCc3ccccc3)cc21` [H H NO2 Obenzyl, 3-(6-benzyloxy-1-methyl-1H-indol-3-yl)-4-(1-methyl-6-nitro-1H-indol-3-yl)-pyrrole-2,5-dione], the IC50 was 0.09 µM.

Take `CSc1ccc2c(C3=C(c4cn(C)c5cc([N+](=O)[O-])ccc45)C(=O)NC3=O)cn(C)c2c1` [H H NO2 SCH3, 3-(1-Methyl-6-methylsulfanyl-1H-indol-3-yl)-4-(1-methyl-6-nitro-1H-indol-3-yl)-pyrrole-2,5-dione]: the IC50 was found to be 0.009 µM.

In turn, `COc1ccc2c(C3=C(c4cn(C)c5cc([N+](=O)[O-])ccc45)C(=O)NC3=O)cn(C)c2c1` [H H OCH3 NO2, 3-(6-methoxy-1-methyl-1H-indol-3-yl)-4-(1-methyl-6-nitro-1H-indol-3-yl)-pyrrole-2,5-dione] gave an IC50 of 0.007 µM.

On to `COc1ccc2c(C3=C(c4cn(C)c5cc(OC)ccc45)C(=O)NC3=O)cn(C)c2c1` [H H OCH3 OCH3, 3,4-Bis-(6-methoxy-1-methyl-1H-indol-3-yl)-pyrrole-2,5-dione], for which the IC50 worked out at 0.005 µM.

In turn, `Cn1cc(C2=C(c3cn(C)c4cc([N+](=O)[O-])ccc34)C(=O)NC2=O)c2cc([N+](=O)[O-])ccc21` [H NO2 H NO2, 3-(1-methyl-5-nitro-1H-indol-3-yl)-4-(1-methyl-6-nitro-1H-indol-3-yl)-pyrrole-2,5-dione] returned an IC50 of 0.83 µM.
